Assays:
[1] = system: stage III CRC patients; assay: Survival of stage III CRC patients treated by surgery alone or by surgery and 5-FU/leucovorin (matched cohorts), by CIMP status; assay type: in vivo, human
Source text: A total of 891 stage III CRC cases were diagnosed at the Sir Charles Gairdner Hospital between 1985 and 1999 (14). This spans the time period during which 5-FU-based adjuvant chemotherapy was being introduced in Western Australia for the management of stage III CRC. Adjuvant chemotherapy was given to 270 (30%) patients according to the standard Mayo regimen (5-FU/leucovorin). This comprised at least two cycles of chemotherapy, and for the majority of patients the full six cycles were completed. Patients were separated into categories based on 5-year age intervals, gender, and site of tumor origin. […] Within these groups, adjuvant-treated and nontreated patients were pair-matched at random. A total cohort of 125 matched pairs was selected for DNA methylation analysis. […] All cases were diagnosed at a single pathology laboratory (Hospital and University Pathology Service/Pathcenter) associated with the Sir Charles Gairdner Hospital. This laboratory maintained relatively constant reporting practices during the 1985-1999 study period. Five cases were classified as T4 lesions, and all others were classified as T3. The study included 48 rectal, 24 sigmoid, 24 descending colon, 17 transverse colon, 47 ascending colon, and 46 cecal tumors. Four patients with rectal cancer received post-operative radiotherapy. Disease-specific survival information was obtained on all 206 patients by examination of hospital and West Australian Health Department records. The median follow-up time was 39 months (range, 1-172 months), with 119 patients (58%) dying as a result of recurrent disease by the end of the study. Survival data for 19 (9%) patients who died from other causes were censored at the time of death. It has been estimated that net migration out of the state of Western Australia is 0.4% per year, equating to approximately 1 case/year of the 206 cases investi-gated in this series. However, this rate is expected to be considerably lower for older individuals and particularly for those diagnosed with cancer. The Sir Charles Gairdner Hospital Human Research Ethics Committee gave approval for this study.
Methylation-specific PCR was used to determine the methylation status of CpG islands located within the p16 promoter (4, 5, 10, 17), the MINT-2 clone (3, 4), and the MDR1 promoter (4, 9). DNA amplification of all three CpG loci was successful for 103 matched pairs, equating to an overall success rate of approximately 90%. CIMP+ was arbitrarily defined as the presence of two or more of these sites showing methylation. Of the 206 tumors successfully analyzed in this study for CIMP+ status, the majority (83%) were sourced from formalin-fixed and paraffin-embedded archival tissue blocks. The remaining cases were in the form of unfixed tissue samples taken shortly after surgical resection and stored frozen at −80° C.
Multivariate Cox proportional hazard test with matched-pair stratification and Kaplan-Meier analyses were used to evaluate differences in survival between patient groups. Regression sensitivity was determined by analyzing the effect of unmeasured binary confounders as described by Lin et al. (20) Statistical analyses were performed using the Stata 7.0 (College Station, Tex.) software package. All Ps are two-sided.

[2] = system: stage II and III colorectal cancers; assay: Survival of stage II and III colorectal cancer patients treated by surgery alone or surgery plus standard 5FU chemotherapy, by hMLH1 methylation; assay type: in vivo, human
Source text: The predictive value of hMLH1 methylation for survival benefit with 5FU chemotherapy was examined in a series of stage II and III colorectal cancers that had been treated by surgery alone (no chemotherapy) or by surgery plus standard 5FU chemotherapy.
The following primers were used to detect methylated hMLH1 following bisulfite conversion (utilising the MSP technique): […]

O=c1[nH]cc(F)c(=O)[nH]1 [5-FU, 5-fluorouracil]
RR (relative risk), predictive value of CIMP+ for survival benefit ([1]; CIMP+, multivariate analysis for matched pairs, independent of MSI+ and p53 status, 95% CI 0.06-0.84, P=0.027): 0.22 | long-term survival benefit from 5-FU treatment ([1]; CIMP- patients): no long-term survival benefit | RR (relative risk), survival benefit from 5-FU ([1]; CIMP- patients, 95% CI 0.62-1.49, P=0.86): 0.96 | RR (relative risk), survival benefit associated with the use of 5-FU ([1]; all stage III CRC patients, surgery + 5-FU vs surgery alone, 95% CI 0.43-0.90, P=0.012): 0.62 | survival of CIMP+ patients compared to CIMP- ([1]; cohort treated with surgery plus 5-FU): trend for better survival | patients who died from recurrent CRC despite the use of 5-FU ([1]; patients with CIMP+ tumors): approximately 40% | survival of patient group ([2]; hMLH1 methylated, chemotherapy (10/10), P = 0.097 vs no chemotherapy): 10/10 (100%) P = 0.097 | survival of patient group ([2]; hMLH1 non-methylated, chemotherapy (15/22), P = NS vs no chemotherapy): 15/22 (68%) P = NS | impact of chemotherapy on overall survival ([2]; patients with methylated hMLH1 gene, chemotherapy vs no chemotherapy (FIG. 3C)): positive impact

— patent publication US20050118613A1, “Methods and kits for predicting the likelihood of successful treatment of cancer” (Oncomethylome Sciences S.A., priority 2003, published 2005)
